Where a name gives a salt, the structure may show the parent alone.
Assays:
[1] = biological target: PI3Kδ (p110δ/p85α) Recombinant Human Protein (Homo sapiens (Human), UniProt O00329); assay: PI3Kδ Scintillation Proximity Assay; type: biochemical; conditions: read-out: PI3K-delta SPA IC50
Method in brief: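 Radiometric read-out: 33P-labelled PIP3 product captured on WGA SPA beads and counted, with IC50 fitted from percent activity relative to DMSO control. Enzyme (3.4 nM) was incubated 120 min at room temperature with 20 μM PIP2 and 2 μM ATP at pH 6.7, 2% DMSO.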

[2] = biological target: PI3Kγ (p110γ) Recombinant Human Protein (Homo sapiens (Human), UniProt P48736); assay: PI3K-γ Scintillation Proximity Assay; type: biochemical; conditions: read-out: PI3K-gamma SPA IC50
Method in brief: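 Radiometric SPA: reaction at room temperature for 120 min using 2 μM ATP with [γ-33P]ATP tracer, 20 μM PIP2 substrate and 13 nM human PI3Kγ (MOPS pH 6.7, MgCl2, DTT, CHAPS; 2% DMSO). EDTA quench with WGA beads, scintillation count, and IC50 fit of percent-of-control activity.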

[3] = system: Phosphorylated Ribosomal Protein S6 (RPS6) in THP-1 cells; assay: THP-1 RPS6 ELISA Assay; type: cell-based, Human; conditions: Homo sapiens, MCP-1 stimulated, phospho-RPS6 ELISA, read-out: THP p-RPS6 ELISA IC50
Description: Example A. THP-1 RPS6 ELISA Assay
To measure the Phosphorylated Ribosomal Protein S6 (RPS6) in cell lysates, THP-1 cells (Human Acute Monocytic Leukemia) are purchased from ATCC (Manassas, Va.) and maintained in RPMI with 10% FBS (Gibco/Life Technologies, Carlsbad, Calif.). For the assay, THP-1 cells are serum starved overnight in RPMI, then plated in RPMI (2×10^5 cells/well in 90 μL) into 96-well flat-bottom tissue culture treated plates (Corning, Corning, N.Y.), in the presence or absence of a concentration range of test compounds. Covered plates are incubated for 2 hours at 37° C., 5% CO2 then treated with or without 10 nM MCP-1 (MYBioSource, San Diego, Calif.) for 15 minutes at 37° C., 5% CO2. Plates are centrifuged at 1600 RPM and supernatants are removed. Cells are lysed in Lysis Buffer (Cell Signaling, Danvers, Mass.) with Protease Inhibitor (Calbiochem/EMD, Germany), PMSF (Sigma, St Louis Mo.), HALTS (Thermo Fisher, Rockford, Ill.) for 30 min on wet ice. Cell lysates are frozen at −80° C. before testing. The lysates are tested in the Human/Mouse/Rat Phospho-RPS6 ELISA (R&D Systems, Inc. Minn, Minn.). The plate is measured using a microplate reader (SpectraMax M5—Molecular Devices, LLC Sunnyvale, Calif.) set to 450 nm with a wavelength correction of 540. IC50 determination is performed by fitting the curve of inhibitor percent inhibition versus the log of the inhibitor concentration using the GraphPad Prism 5.0 software.

Sequence of PI3Kδ (p110δ/p85α) Recombinant Human Protein (O00329 whole entry): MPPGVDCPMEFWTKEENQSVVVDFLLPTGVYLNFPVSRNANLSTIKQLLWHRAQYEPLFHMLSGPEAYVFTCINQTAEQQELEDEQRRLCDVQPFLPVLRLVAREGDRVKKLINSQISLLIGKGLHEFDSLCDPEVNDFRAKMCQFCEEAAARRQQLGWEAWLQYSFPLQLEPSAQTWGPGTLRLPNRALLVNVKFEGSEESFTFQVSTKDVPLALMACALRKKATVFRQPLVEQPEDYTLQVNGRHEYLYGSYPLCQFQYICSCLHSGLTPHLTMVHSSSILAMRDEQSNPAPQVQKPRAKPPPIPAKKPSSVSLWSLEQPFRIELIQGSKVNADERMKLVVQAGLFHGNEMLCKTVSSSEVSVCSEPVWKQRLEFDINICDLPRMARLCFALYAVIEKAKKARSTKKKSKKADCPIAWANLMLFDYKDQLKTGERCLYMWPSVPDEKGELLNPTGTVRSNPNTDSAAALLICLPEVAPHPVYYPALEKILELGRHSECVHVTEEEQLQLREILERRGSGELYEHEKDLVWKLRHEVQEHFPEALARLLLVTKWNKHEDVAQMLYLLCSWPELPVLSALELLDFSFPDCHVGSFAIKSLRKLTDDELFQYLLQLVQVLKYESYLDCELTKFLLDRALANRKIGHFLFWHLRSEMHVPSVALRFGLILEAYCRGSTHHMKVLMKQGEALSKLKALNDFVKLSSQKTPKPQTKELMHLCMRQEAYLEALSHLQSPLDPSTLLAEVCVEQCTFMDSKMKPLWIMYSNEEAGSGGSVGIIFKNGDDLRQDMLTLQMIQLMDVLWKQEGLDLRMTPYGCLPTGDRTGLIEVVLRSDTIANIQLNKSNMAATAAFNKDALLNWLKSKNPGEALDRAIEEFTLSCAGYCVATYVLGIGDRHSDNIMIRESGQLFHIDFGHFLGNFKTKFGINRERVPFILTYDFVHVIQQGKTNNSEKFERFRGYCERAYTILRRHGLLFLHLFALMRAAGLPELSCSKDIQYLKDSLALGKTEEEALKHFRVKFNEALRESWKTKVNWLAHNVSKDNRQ
Sequence of PI3Kδ (p110δ/p85α) Recombinant Human Protein (P27986 whole entry partner): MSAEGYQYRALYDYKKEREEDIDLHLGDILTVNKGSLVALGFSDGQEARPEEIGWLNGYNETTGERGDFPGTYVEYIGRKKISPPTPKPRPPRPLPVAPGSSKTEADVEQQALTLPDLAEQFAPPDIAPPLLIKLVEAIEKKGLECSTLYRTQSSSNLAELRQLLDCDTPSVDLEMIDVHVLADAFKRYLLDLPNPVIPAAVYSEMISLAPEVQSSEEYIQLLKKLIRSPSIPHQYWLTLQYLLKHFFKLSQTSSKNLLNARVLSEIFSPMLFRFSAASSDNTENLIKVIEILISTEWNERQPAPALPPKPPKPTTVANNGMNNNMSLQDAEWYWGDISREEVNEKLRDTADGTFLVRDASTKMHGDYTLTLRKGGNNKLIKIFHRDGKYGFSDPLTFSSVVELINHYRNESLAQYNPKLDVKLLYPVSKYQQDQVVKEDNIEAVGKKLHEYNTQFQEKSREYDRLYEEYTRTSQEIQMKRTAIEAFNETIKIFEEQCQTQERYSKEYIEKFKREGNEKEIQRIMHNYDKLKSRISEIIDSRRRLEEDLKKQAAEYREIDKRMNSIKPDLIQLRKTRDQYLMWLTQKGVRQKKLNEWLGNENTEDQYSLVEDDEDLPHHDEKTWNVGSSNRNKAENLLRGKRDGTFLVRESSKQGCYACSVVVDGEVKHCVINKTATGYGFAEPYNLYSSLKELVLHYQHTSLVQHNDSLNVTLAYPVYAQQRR
Sequence of PI3Kγ (p110γ) Recombinant Human Protein (P48736 whole entry): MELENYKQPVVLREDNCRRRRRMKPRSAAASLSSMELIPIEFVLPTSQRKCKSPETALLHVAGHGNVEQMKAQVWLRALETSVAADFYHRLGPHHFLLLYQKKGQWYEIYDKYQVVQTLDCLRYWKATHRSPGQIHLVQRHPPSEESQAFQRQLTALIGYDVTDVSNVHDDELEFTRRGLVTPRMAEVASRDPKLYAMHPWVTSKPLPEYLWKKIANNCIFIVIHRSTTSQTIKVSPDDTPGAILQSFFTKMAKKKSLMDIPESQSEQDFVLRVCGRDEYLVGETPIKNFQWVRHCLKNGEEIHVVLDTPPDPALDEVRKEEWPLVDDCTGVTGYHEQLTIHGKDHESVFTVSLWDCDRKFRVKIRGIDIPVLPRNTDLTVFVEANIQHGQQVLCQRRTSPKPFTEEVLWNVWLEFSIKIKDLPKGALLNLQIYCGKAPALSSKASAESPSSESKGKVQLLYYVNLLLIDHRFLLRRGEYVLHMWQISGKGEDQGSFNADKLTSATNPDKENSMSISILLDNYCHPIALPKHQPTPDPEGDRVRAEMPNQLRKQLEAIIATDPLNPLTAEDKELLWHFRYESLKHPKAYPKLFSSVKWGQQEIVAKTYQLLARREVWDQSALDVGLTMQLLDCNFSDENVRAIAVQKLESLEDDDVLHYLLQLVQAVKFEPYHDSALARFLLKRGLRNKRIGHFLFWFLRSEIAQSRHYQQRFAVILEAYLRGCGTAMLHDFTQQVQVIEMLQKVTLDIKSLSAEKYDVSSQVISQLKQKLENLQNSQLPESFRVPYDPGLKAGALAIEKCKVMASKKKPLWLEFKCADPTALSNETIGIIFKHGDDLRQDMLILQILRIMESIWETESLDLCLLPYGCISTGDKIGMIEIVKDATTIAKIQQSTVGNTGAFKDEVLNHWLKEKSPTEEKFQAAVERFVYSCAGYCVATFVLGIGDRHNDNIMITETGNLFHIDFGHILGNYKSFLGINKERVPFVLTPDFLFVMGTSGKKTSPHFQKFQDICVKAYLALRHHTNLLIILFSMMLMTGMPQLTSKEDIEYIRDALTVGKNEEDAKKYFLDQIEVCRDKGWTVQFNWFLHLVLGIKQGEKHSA

| SMILES | IC50 [1] [nM] | IC50 [2] [nM] | IC50 [3] [nM] |
| --- | --- | --- | --- |
| CS(=O)(=O)N1CCC(c2c[nH]c(-c3cc(-c4cnn(Cc5ccc(Cl)cc5)c4)ccn3)n2)C1 (single isomer, unassigned) [Example 300, 4-[1-(4-Chlorobenzyl)-1H-pyrazol-4-yl]-2-{4-[1-(methylsulfonyl)pyrrolidin-3-yl]-1H-imidazol-2-yl}pyridine Trifluoroacetate Salt] | ≤ 500 | ≤ 50 | 300 to 1000 |
| Clc1ccc(Cn2cc(-c3ccnc(-c4ncc(-c5ccccc5)[nH]4)c3)cn2)cc1 [Example 1, 4-[1-(4-Chlorobenzyl)-1H-pyrazol-4-yl]-2-(5-phenyl-1H-imidazol-2-yl)pyridine Trifluoroacetate Salt] | > 500 | ≤ 50 | > 5000 |
| c1ccc(Cn2cc(-c3ccnc(-c4ncc(-c5ccccc5)[nH]4)c3)cn2)cc1 [Example 5, 4-(1-Benzyl-1H-pyrazol-4-yl)-2-(5-phenyl-1H-imidazol-2-yl)pyridine trifluoroacetate salt] | ≤ 50 | ≤ 100 | 1000 to 5000 |
| N#Cc1ccccc1Cn1cc(-c2ccnc(-c3ncc(-c4ccccc4)[nH]3)c2)cn1 [Example 6, 2-((4-(2-(5-Phenyl-1H-imidazol-2-yl)pyridin-4-yl)-1H-pyrazol-1-yl)methyl)benzonitrile trifluoroacetate salt] | ≤ 500 | ≤ 100 | > 5000 |
| Clc1ccccc1Cn1cc(-c2ccnc(-c3ncc(-c4ccccc4)[nH]3)c2)cn1 [Example 7, 4-(1-(2-Chlorobenzyl)-1H-pyrazol-4-yl)-2-(5-phenyl-1H-imidazol-2-yl)pyridine trifluoroacetate salt] | ≤ 500 | ≤ 100 | > 5000 |
| Cc1n[nH]cc1-c1ccnc(-c2ncc(-c3ccccc3)[nH]2)c1 [Example 9, 4-(3-Methyl-1H-pyrazol-4-yl)-2-(5-phenyl-1H-imidazol-2-yl)pyridine trifluoroacetate salt] | ≤ 500 | ≤ 100 | 1000 to 5000 |
| CCn1cc(-c2ccnc(-c3ncc(-c4ccccc4)[nH]3)c2)cn1 [Example 10, 4-(1-Ethyl-1H-pyrazol-4-yl)-2-(5-phenyl-1H-imidazol-2-yl)pyridine trifluoroacetate salt] | ≤ 500 | ≤ 500 | 1000 to 5000 |
| CC(=O)Nc1cncc(-c2ccnc(-c3ncc(-c4ccccc4)[nH]3)c2)c1 [Example 17, N-(2′-(5-Phenyl-1H-imidazol-2-yl)-3,4′-bipyridin-5-yl)acetamide trifluoroacetate salt] | ≤ 50 | ≤ 50 | 300 to 1000 |
| c1ccc(-c2cnc(-c3cc(-c4cncc(N5CCOCC5)c4)ccn3)[nH]2)cc1 [Example 18, 4-(2′-(5-Phenyl-1H-imidazol-2-yl)-3,4′-bipyridin-5-yl)morpholine trifluoroacetate salt] | ≤ 50 | ≤ 50 | 300 to 1000 |
| COc1cncc(-c2ccnc(-c3ncc(-c4ccccc4)[nH]3)c2)c1 [Example 19, 5-Methoxy2′-(5-phenyl-1H-imidazol-2-yl)-3,4′-bipyridin trifluoroacetate salt] | ≤ 50 | ≤ 50 | 1000 to 5000 |
| CS(=O)(=O)c1cncc(-c2ccnc(-c3ncc(-c4ccccc4)[nH]3)c2)c1 [Example 40, 5-(Methylsulfonyl)-2′-(5-phenyl-1H-imidazol-2-yl)-3,4′-bipyridine trifluoroacetate salt] | ≤ 50 | ≤ 50 | ≤ 300 |
| N#Cc1ccc(Cn2cc(-c3ccnc(-c4ncc(-c5ccccc5)[nH]4)c3)cn2)cc1 [Example 43, 4-((4-(2-(5-Phenyl-1H-imidazol-2-yl)pyridin-4-yl)-1H-pyrazol-1-yl)methyl)benzonitrile trifluoroacetate salt] | > 500 | ≤ 500 | > 5000 |
| O=S(=O)(C1CC1)n1cc(-c2ccnc(-c3ncc(-c4ccccc4)[nH]3)c2)cn1 [Example 46, 4-(1-(Cyclopropylsulfonyl)-1H-pyrazol-4-yl)-2-(5-phenyl-1H-imidazol-2-yl)pyridine trifluoroacetate salt] | ≤ 500 | ≤ 100 | > 5000 |

Now from value to compound:

| IC50 [1] [nM] | IC50 [2] [nM] | IC50 [3] [nM] | SMILES |
| --- | --- | --- | --- |
| ≤ 50 | ≤ 50 | ≤ 300 | COC(=O)C1CCN(C(=O)c2cncc(-c3ccnc(-c4nc(C)c(C)[nH]4)c3)c2)C1 (racemic) [Example 175, Methyl 1-{[2′-(4,5-dimethyl-1H-imidazol-2-yl)-3,4′-bipyridin-5-yl]carbonyl}pyrrolidine-3-carboxylate trifluoroacetate salt] |
| ≤ 50 | ≤ 50 | ≤ 300 | Cc1nc(-c2cc(-c3cncc(C(=O)N4CCC(C(F)(F)F)C4)c3)ccn2)[nH]c1C (racemic) [Example 178, 2′-(4,5-Dimethyl-1H-imidazol-2-yl)-5-{[3-(trifluoromethyl)pyrrolidin-1-yl]carbonyl}-3,4′-bipyridine trifluoroacetate salt] |
| ≤ 50 | ≤ 50 | 1000 to 5000 | Cc1nc(-c2cc(-c3cncc(C(=O)N4CCC(C)(O)C4)c3)ccn2)[nH]c1C (racemic) [Example 180, 1-{[2′-(4,5-Dimethyl-1H-imidazol-2-yl)-3,4′-bipyridin-5-yl]carbonyl}-3-methylpyrrolidin-3-ol trifluoroacetate salt] |
| ≤ 50 | ≤ 50 | 300 to 1000 | Cc1nc(-c2cc(-c3cncc(C(=O)N4CCC(C#N)C4)c3)ccn2)[nH]c1C (racemic) [Example 183, 1-{[2′-(4,5-Dimethyl-1H-imidazol-2-yl)-3,4′-bipyridin-5-yl]carbonyl}pyrrolidine-3-carbonitrile trifluoroacetate salt] |
| ≤ 50 | ≤ 50 | 300 to 1000 | Cc1nc(-c2cc(-c3cncc(C(=O)N4CCC4C(F)(F)F)c3)ccn2)[nH]c1C (racemic) [Example 184, 2′-(4,5-Dimethyl-1H-imidazol-2-yl)-5-{[2-(trifluoromethyl)azetidin-1-yl]carbonyl}-3,4′-bipyridine trifluoroacetate salt] |
| ≤ 100 | ≤ 50 | 300 to 1000 | Cc1nc(-c2cc(-c3cncc(C(=O)N4CCCCC4C)c3)ccn2)[nH]c1C (racemic) [Example 190, 2′-(4,5-Dimethyl-1H-imidazol-2-yl)-5-[(2-methylpiperidin-1-yl)carbonyl]-3,4′-bipyridine trifluoroacetate salt] |
| ≤ 500 | ≤ 100 | 1000 to 5000 | Cc1nc(-c2cc(-c3cncc(C4CCN(S(C)(=O)=O)C4)c3)ccn2)[nH]c1C (racemic) [Example 240, 2′-(4,5-Dimethyl-1H-imidazol-2-yl)-5-[1-(methylsulfonyl)pyrrolidin-3-yl]-3,4′-bipyridine] |
| ≤ 50 | ≤ 50 | ≤ 300 | Cc1[nH]c(-c2cc(-c3cncc(N4CCOCC4)c3)ccn2)nc1C(=O)NC(C)c1cccc(F)c1 (racemic) [Example 277, N-[1-(3-Fluorophenyl)ethyl]-5-methyl-2-(5-morpholin-4-yl-3,4′-bipyridin-2′-yl)-1H-imidazole-4-carboxamide trifluoroacetate salt] |

— patent publication US11352340B2, “Pyridine and pyridimine compounds as PI3K-gamma inhibitors” (Incyte Corporation, priority 2016, dated 2022)
